Test results taken from article PMC7873477, “Fermentative Production of L-2-Hydroxyglutarate by Engineered Corynebacterium glutamicum via Pathway Extension of L-Lysine Biosynthesis” (Frontiers in Bioengineering and Biotechnology, 2021).

How the values were obtained:
CsiD (HPGluA) = target: T1, CsiD (HPGluA) (Pseudomonas putida, UniProt Q88IU0); test: L-2HG formation by engineered C. glutamicum, HPLC of supernatant; type: cell-based; details: whole cells, endogenously formed glutarate; Fe(II) and 2-oxoglutarate dependent; 96 h
T1 construct: gene glaH; untagged, from pVWEx1-ldcC-csiD(Pp) in C. glutamicum GSLA2G; whole-cell production
T1 sequence (Q88IU0 1-325): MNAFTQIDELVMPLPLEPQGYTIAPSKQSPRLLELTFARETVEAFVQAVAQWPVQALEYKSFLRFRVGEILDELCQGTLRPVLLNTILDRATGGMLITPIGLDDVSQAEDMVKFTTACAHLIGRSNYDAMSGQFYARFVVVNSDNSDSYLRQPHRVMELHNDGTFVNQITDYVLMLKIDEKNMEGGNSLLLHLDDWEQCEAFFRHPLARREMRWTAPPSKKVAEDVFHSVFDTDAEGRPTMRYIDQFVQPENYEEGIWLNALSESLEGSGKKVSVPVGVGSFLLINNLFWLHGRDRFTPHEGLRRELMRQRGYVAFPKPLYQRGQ

CsiD (HEGluA) = target: T2, CsiD (HEGluA) (Escherichia coli, UniProt P76621); test: as above; type: cell-based, Corynebacterium glutamicum; details: whole cells, endogenously formed glutarate; Fe(II) and 2-oxoglutarate dependent; 96 h
T2 construct: gene glaH; untagged, from pVWEx1-ldcC-csiD(Ec) in C. glutamicum GSLA2G; whole-cell production
T2 sequence (P76621 1-325): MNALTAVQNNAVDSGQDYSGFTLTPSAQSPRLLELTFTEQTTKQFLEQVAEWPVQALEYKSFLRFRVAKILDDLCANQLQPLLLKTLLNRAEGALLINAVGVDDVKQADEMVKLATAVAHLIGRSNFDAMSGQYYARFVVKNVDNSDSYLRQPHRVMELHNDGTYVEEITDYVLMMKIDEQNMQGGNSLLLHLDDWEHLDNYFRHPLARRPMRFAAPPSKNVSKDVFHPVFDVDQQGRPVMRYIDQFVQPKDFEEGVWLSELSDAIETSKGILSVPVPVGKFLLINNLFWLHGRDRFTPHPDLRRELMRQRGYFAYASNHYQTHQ

In the case of O=C(O)CCCC(=O)O [glutarate], the “L-2HG formation by engineered C. glutamicum, HPLC of supernatant” value (CsiD (HPGluA)) is reported as “the three strains produced and secreted L-2HG” and the “L-2HG formation by engineered C. glutamicum, HPLC of supernatant” value (CsiD (HEGluA)) is reported as “the three strains produced and secreted L-2HG”.
